Laboratory results from EP3075724A1, “SOLID FORM OF AGOMELATINE” (F.I.S.- Fabbrica Italiana Sintetici S.p.A., priority 2015, dated 2016).

Legend:
[1] = cited from earlier work
Kinetic dissolution test = type: physicochemical; details: 200 mg tablet, 100 mL saline solution, paddle 100 rpm, 37 °C
Description: The tests were performed in duplicate on 13 mm tablets containing 200 mg agomelatine (form I) or agomelatine pyruvic acid cocrystal, which were prepared on a Digital Hydraulic Press at a force of about 8 metric tons. The tablets were placed in 100 mL of saline solution in a paddle apparatus at 100 rpm and 37 °C ± 0.5 °C. A 3 mL sample was withdrawn from each vessel at fixed time points, filtered through a 0.45 µm filter (discarding the first 1 mL), analyzed by HPLC, and compared to a previously prepared reference standard calibration curve. Immediately after each sampling, the solutions in the vessels were replenished with 3 mL of saline.

[2] = Stability tests (chemical stability by HPLC); type: physicochemical
Description: Agomelatine pyruvic acid cocrystal according to Example 1 was subjected to stability tests for seven days at 25 °C, 60 % RH and 40 °C, 75 % RH, respectively.

[3] = 5 min, Ø (average of #1 and #2)
[4] = 15 min, Ø (average of #1 and #2)
[5] = 30 min, Ø (average of #1 and #2)
[6] = 45 min, Ø (average of #1 and #2)
[7] = 60 min, Ø (average of #1 and #2)
[8] = 90 min, Ø (average of #1 and #2)
[9] = 120 min, Ø (average of #1 and #2)
[10] = 180 min, Ø (average of #1 and #2)
[11] = 240 min, Ø (average of #1 and #2)
[12] = 300 min, Ø (average of #1 and #2)
[13] = 360 min, Ø (average of #1 and #2)
[14] = 420 min, Ø (average of #1 and #2)

| SMILES | kinetic dissolution in aqueous medium (Kinetic dissolution test; 5 min, #1) [µg/mL] | kinetic dissolution in aqueous medium (Kinetic dissolution test; 5 min, #2) [µg/mL] | kinetic dissolution in aqueous medium (Kinetic dissolution test; [3]) [µg/mL] | kinetic dissolution in aqueous medium (Kinetic dissolution test; 15 min, #1) [µg/mL] | kinetic dissolution in aqueous medium (Kinetic dissolution test; 15 min, #2) [µg/mL] | kinetic dissolution in aqueous medium (Kinetic dissolution test; [4]) [µg/mL] | kinetic dissolution in aqueous medium (Kinetic dissolution test; 30 min, #1) [µg/mL] | kinetic dissolution in aqueous medium (Kinetic dissolution test; 30 min, #2) [µg/mL] | kinetic dissolution in aqueous medium (Kinetic dissolution test; [5]) [µg/mL] | kinetic dissolution in aqueous medium (Kinetic dissolution test; 45 min, #1) [µg/mL] | kinetic dissolution in aqueous medium (Kinetic dissolution test; 45 min, #2) [µg/mL] | kinetic dissolution in aqueous medium (Kinetic dissolution test; [6]) [µg/mL] | kinetic dissolution in aqueous medium (Kinetic dissolution test; 60 min, #1) [µg/mL] | kinetic dissolution in aqueous medium (Kinetic dissolution test; 60 min, #2) [µg/mL] | kinetic dissolution in aqueous medium (Kinetic dissolution test; [7]) [µg/mL] | kinetic dissolution in aqueous medium (Kinetic dissolution test; 90 min, #1) [µg/mL] | kinetic dissolution in aqueous medium (Kinetic dissolution test; 90 min, #2) [µg/mL] | kinetic dissolution in aqueous medium (Kinetic dissolution test; [8]) [µg/mL] | kinetic dissolution in aqueous medium (Kinetic dissolution test; 120 min, #1) [µg/mL] | kinetic dissolution in aqueous medium (Kinetic dissolution test; 120 min, #2) [µg/mL] | other results |
| --- | --- | --- | --- | --- | --- | --- | --- | --- | --- | --- | --- | --- | --- | --- | --- | --- | --- | --- | --- | --- | --- |
| COc1ccc2cccc(CCNC(C)=O)c2c1 [agomelatine, N-[2-(7-methoxynaphthalen-1-yl)ethyl]acetamide] |  |  |  |  |  |  |  |  |  |  |  |  |  |  |  |  |  |  |  |  | solubility in various organic solvents ([1]; e.g. ethanol, methanol, methylene chloride, freely soluble): > 100 mg/mL; solubility in purified water ([1]; purified water, practically insoluble): < 0.1 mg/mL |
| COc1ccc2cccc(CCNC(C)=O)c2c1 [Form I, N-[2-(7-methoxynaphthalen-1-yl)ethyl]acetamide] | 3.39 | 4.38 | 3.89 | 8.20 | 9.32 | 8.76 | 14.80 | 15.58 | 15.19 | 22.55 | 23.81 | 23.18 | 30.05 | 31.53 | 30.79 | 47.49 | 50.84 | 49.17 | 55.73 | 58.72 | kinetic dissolution in aqueous medium (Kinetic dissolution test; [9]): 57.23 µg/mL; kinetic dissolution in aqueous medium (Kinetic dissolution test; 180 min, #1): 75.07 µg/mL; kinetic dissolution in aqueous medium (Kinetic dissolution test; 180 min, #2): 74.85 µg/mL; kinetic dissolution in aqueous medium (Kinetic dissolution test; [10]): 74.96 µg/mL; kinetic dissolution in aqueous medium (Kinetic dissolution test; 240 min, #1): 91.32 µg/mL; kinetic dissolution in aqueous medium (Kinetic dissolution test; 240 min, #2): 86.85 µg/mL; kinetic dissolution in aqueous medium (Kinetic dissolution test; [11]): 89.09 µg/mL; kinetic dissolution in aqueous medium (Kinetic dissolution test; 300 min, #1): 102.54 µg/mL; kinetic dissolution in aqueous medium (Kinetic dissolution test; 300 min, #2): 96.76 µg/mL; kinetic dissolution in aqueous medium (Kinetic dissolution test; [12]): 99.65 µg/mL; kinetic dissolution in aqueous medium (Kinetic dissolution test; 360 min, #1): 112.42 µg/mL; kinetic dissolution in aqueous medium (Kinetic dissolution test; 360 min, #2): 106.36 µg/mL; kinetic dissolution in aqueous medium (Kinetic dissolution test; [13]): 109.39 µg/mL; kinetic dissolution in aqueous medium (Kinetic dissolution test; 420 min, #1): 121.98 µg/mL; kinetic dissolution in aqueous medium (Kinetic dissolution test; 420 min, #2): 114.14 µg/mL; kinetic dissolution in aqueous medium (Kinetic dissolution test; [14]): 118.06 µg/mL |
| COc1ccc2cccc(CCNC(C)=O)c2c1 [Pyruvic Acid Cocrystal] | 5.21 | 5.45 | 5.33 | 12.55 | 13.42 | 12.99 | 22.75 | 24.10 | 23.43 | 33.41 | 37.03 | 35.22 | 42.71 | 50.65 | 46.68 | 70.03 | 77.31 | 73.67 | 84.65 | 90.24 | kinetic dissolution in aqueous medium (Kinetic dissolution test; [9]): 87.45 µg/mL; kinetic dissolution in aqueous medium (Kinetic dissolution test; 180 min, #1): 114.37 µg/mL; kinetic dissolution in aqueous medium (Kinetic dissolution test; 180 min, #2): 114.58 µg/mL; kinetic dissolution in aqueous medium (Kinetic dissolution test; [10]): 114.48 µg/mL; kinetic dissolution in aqueous medium (Kinetic dissolution test; 240 min, #1): 131.99 µg/mL; kinetic dissolution in aqueous medium (Kinetic dissolution test; 240 min, #2): 131.80 µg/mL; kinetic dissolution in aqueous medium (Kinetic dissolution test; [11]): 131.9 µg/mL; kinetic dissolution in aqueous medium (Kinetic dissolution test; 300 min, #1): 144.64 µg/mL; kinetic dissolution in aqueous medium (Kinetic dissolution test; 300 min, #2): 144.74 µg/mL; kinetic dissolution in aqueous medium (Kinetic dissolution test; [12]): 144.69 µg/mL; kinetic dissolution in aqueous medium (Kinetic dissolution test; 360 min, #1): 155.52 µg/mL; kinetic dissolution in aqueous medium (Kinetic dissolution test; 360 min, #2): 156.49 µg/mL; kinetic dissolution in aqueous medium (Kinetic dissolution test; [13]): 156.01 µg/mL; kinetic dissolution in aqueous medium (Kinetic dissolution test; 420 min, #1): 165.30 µg/mL; kinetic dissolution in aqueous medium (Kinetic dissolution test; 420 min, #2): 163.14 µg/mL; kinetic dissolution in aqueous medium (Kinetic dissolution test; [14]): 164.22 µg/mL; chemical stability as determined by HPLC ([2]; seven days at 25 °C, 60 % RH): excellent chemical stability; chemical stability as determined by HPLC ([2]; seven days at 40 °C, 75 % RH): excellent chemical stability |
